# Results: US8258100B2, “Ligand/lytic peptide methods of use” (Board of Supervisors of Louisiana State University and …, priority 1997, dated 2012)
# Where a SMILES comes first, the peptide text is derived from it. Where no end group is shown, it is not given here.
# How the values were obtained:
# [1] = biological target: T1, LH receptors (Bos taurus, UniProt Q28005); assay: binding of bLH fragment to LH receptors on granulosa cells; parameters: species or system bovine; settings: data not shown
# T1 construct: endogenous in cells; host or cells: primary bovine granulosa cells from pre-ovulatory follicles
# T1 sequence (Q28005 27-701): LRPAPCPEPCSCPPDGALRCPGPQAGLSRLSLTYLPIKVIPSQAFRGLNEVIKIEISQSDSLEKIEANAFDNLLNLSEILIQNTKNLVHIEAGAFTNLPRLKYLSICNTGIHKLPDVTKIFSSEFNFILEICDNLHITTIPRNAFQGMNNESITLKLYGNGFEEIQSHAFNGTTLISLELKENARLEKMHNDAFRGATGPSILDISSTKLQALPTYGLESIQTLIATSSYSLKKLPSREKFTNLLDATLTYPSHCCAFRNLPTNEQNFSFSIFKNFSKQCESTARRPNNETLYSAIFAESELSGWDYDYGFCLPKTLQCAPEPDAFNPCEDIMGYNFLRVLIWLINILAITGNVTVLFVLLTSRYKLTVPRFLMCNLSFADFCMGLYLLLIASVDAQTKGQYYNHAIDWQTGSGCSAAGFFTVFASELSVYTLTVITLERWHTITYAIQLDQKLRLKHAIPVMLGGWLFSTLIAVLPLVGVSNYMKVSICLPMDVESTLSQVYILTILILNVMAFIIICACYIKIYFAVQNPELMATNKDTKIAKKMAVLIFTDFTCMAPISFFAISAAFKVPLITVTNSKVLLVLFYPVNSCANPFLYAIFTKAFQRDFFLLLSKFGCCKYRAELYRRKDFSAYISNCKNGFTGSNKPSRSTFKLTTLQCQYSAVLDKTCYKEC
# Excerpt: (§1) Stimulation of target cell hormone production was not required for cell lysis.
# [2] = tested on: LH receptors on the target granulosa cells; assay: steroid hormone production by granulosa cells; assay type: cell-based, bovine; settings: data not shown
# Excerpt: as §1
# [3] = tested on: Diatraea saccharalis; assay: fertility of sugar cane borer after inoculation of late-stage pupae; assay type: in vivo; settings: 10 pupae inoculated, 1.0 μL of 1.35 mM peptide in saline
# Protocol: Late-stage Diatraea saccharalis (sugar cane borer) pupae were inoculated with 1.0 μL of saline solution containing 1.35 mM concentration of peptide as stated, or saline alone as control. The pupae were allowed to complete metamorphosis. […] Adult female moths were allowed to mate with treated males, and then lay eggs. The viability of the eggs was measured by counting the number hatching into larvae.
# [4] = tested on: Sprague-Dawley female rats; assay: Sprague-Dawley female rats, single intravenous treatment, necropsy at 48 or 96 hours, PAS stain of pituitary; assay type: in vivo, rat; settings: D-hecate 674 μg, GnRH 334 μg, GnRH-hecate 1 mg
# Protocol: Eight sexually mature, Sprague-Dawley female rats were randomly assigned to one of eight treatments. Each group of rats received a single treatment intravenously, as described below. Rats were sacrificed and necropsied either 48 or 96 hours after treatment. The ovaries, uterus, pancreas, liver, spleen, lungs, heart, thyroid, and adrenal glands were fixed in 10% buffered formalin; sectioned; and stained with H&E (hematoxylin and eosin) stain; except that the pituitary glands were stained with PAS (periodic acid-Schiff) stain with no counter-stain. The treatments were selected so that each animal received an equimolar amount of the compound with which it was treated.
# [5] = biological target: T2, GnRH receptor (Rattus norvegicus, UniProt P30969); assay: displacement of radiolabelled monoiodinated-GnRH from rat pituitary membranes; assay type: binding
# T2 construct: specifically displaced radiolabelled monoiodinated-GnRH from rat pituitary membranes; from tissue; host or cells: rat pituitary membranes
# T2 sequence (P30969 1-327): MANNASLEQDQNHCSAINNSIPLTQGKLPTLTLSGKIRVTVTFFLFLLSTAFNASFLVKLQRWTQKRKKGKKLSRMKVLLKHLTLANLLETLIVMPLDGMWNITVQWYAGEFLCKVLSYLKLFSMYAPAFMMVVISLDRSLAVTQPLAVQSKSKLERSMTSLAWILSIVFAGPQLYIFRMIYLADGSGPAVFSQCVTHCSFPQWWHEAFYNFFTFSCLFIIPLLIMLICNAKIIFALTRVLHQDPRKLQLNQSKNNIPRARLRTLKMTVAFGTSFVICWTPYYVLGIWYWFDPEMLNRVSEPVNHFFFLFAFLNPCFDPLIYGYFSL
# Excerpt: We also synthesized D-Lys^6GnRH (SEQ. ID NO. 13), so that hecate could be conjugated to the D-Lys^6, a position that could minimize interference with binding of the GnRH domain to the GnRH receptor. These synthetic peptides specifically displaced radiolabelled monoiodinated-GnRH from rat pituitary membranes.
# [6] = tested on: sexually immature female rats; assay: immature female rats, intravenous GnRH-hecate or GnRH then hecate, histology and immunocytochemistry at 14 days; assay type: in vivo, rat; settings: as E29
# Protocol: Another set of experiments was performed to study the in vivo effects of the GnRH-hecate conjugate on female rats and rabbits. The ovaries, uterus, oviducts, adrenals, spleen, thyroids, pancreas, liver, lungs, and heart were processed for histological analysis. […] The immunocytochemical staining procedures we used followed generally the procedures of M. Rahmanian et al., “Histological and immunocytochemical characterization of pituitary cell types in ponies,” Proc. 13th Soc. Equine Nutrition & Phys. Symp., pp. 348-349 (1993); M. Rahmanian et al., “Immunocytochemical localization of luteinizing hormone and follicle-stimulating hormone in the equine pituitary,” J. Anim. Sci., vol. 76, pp. 839-846 (1998); M. Rahmanian et al., “Immunocytochemical localization of prolactin and growth hormone in the equine pituitary,” Animal Sci., vol. 75, pp. 3010-3018 (1997); and P. Melrose et al., “Comparative topography of the immunoreactive alpha-melanocyte-stimulating hormone neuronal system in the brains of horses and rats,” Brain Beh. & Evol., vol. 32, pp. 226-235 (1988).
# Brains were serially sectioned on a Vibrotome from the level of the diagonal band of Broca to the mammillary body. […]
# [7] = tested on: sexually immature female rats; assay: immature female rats, intravenous GnRH-hecate dose series; assay type: in vivo, rat; settings: 0.1 to 1.5 mg IV, 24 hours or 14 days
# Protocol: Sexually immature (33 day old) female rats (randomly allocated into groups of three) were injected intravenously with saline or GnRH-hecate in saline as follows:
# Animals were sacrificed at 24 hours or at 14 days after treatment. […] In the rats sacrificed fourteen days after treatment, 66% and 87% of the GnRH-receptor-containing neurons were abnormal in the rats that had received 1.0 and 1.5 mg of GnRH-hecate, respectively. Axonal degeneration in the 1.5 mg GnRH-hecate group was accompanied by over 90% reduction in median eminence staining for GnRH.
# [8] = tested on: female New Zealand rabbits; assay: mature female New Zealand rabbits, intravenous GnRH-hecate, GnRH challenge day 46, necropsy day 47; assay type: in vivo, rabbit; settings: 5 or 10 mg IV
# Protocol: Seven sexually mature female New Zealand rabbits were injected intravenously with saline containing GnRH-hecate as follows:
# Forty-six days later all rabbits were injected intramuscularly with 100 μg GnRH. Blood samples were collected at 0, 1, 4, and 24 hours, and LH and FSH levels in the blood samples were measured by radioimmunoassay. […] The rabbits were sacrificed the next day (day 47) for postmortem histological analysis. […] Ovarian and pituitary weights were reduced by the 10 mg GnRH-hecate treatment.
# [9] = tested on: female rabbits; assay: mature female rabbits, intravenous GnRH-hecate, GnRH challenge day 6, sacrifice day 7; assay type: in vivo, rabbit; settings: 10 mg IV
# Protocol: Nine sexually mature female rabbits were injected intravenously with saline containing 0 mg (n=4) (Treatment 46) or 10 mg GnRH-hecate (n=5) (Treatment 47). Rabbits were injected intramuscularly with GnRH on day 6 posttreatment. Blood samples were collected for radioimmunoassay of LH and FSH as described above, and the animals were sacrificed on day 7 post-treatment. […] The effects of GnRH-hecate on CNS morphology and immunocytochemical results were similar to those described above in Examples 34-45. Again, the effects were more pronounced on GnRH neurons than on staining of pituitary gonadotropes.
# [10] = tested on: bovine small luteal cells; assay: in vitro lysis of bovine small luteal cells (Trypan Blue exclusion, lactic dehydrogenase release); assay type: cell-based, cattle; settings: 22 hr
# Protocol: We studied in vitro lysis of bovine luteal cells with GnRH-hecate conjugate and with hecate-bLH conjugate (SEQ. ID NO. 12). (The bLH component of the conjugate is a 15-mer fragment of the beta chain of luteinizing hormone, SEQ. ID NO. 11). Small luteal cells were collected from cattle corpora lutea post-slaughter.
# Small luteal cells in culture were incubated with one of the following treatments for 22 hours, and were then examined for viability using Trypan Blue exclusion and release of lactic dehydrogenase.
# [11] = tested on: bovine granulosa cells; assay: in vitro lysis of bovine granulosa cells; assay type: cell-based; settings: 1 μM
# Excerpt: We also studied in vitro lysis of bovine granulosa cells with GnRH-hecate conjugate and with hecate-bLH conjugate. Granulosa cells were isolated from bovine pre-ovulatory follicles. (Granulosa cells are hormonally active cells with numerous LH receptors.) Our experiments with granulosa cells were otherwise generally similar to those described above for Examples 24-31.
# [12] = tested on: LNCaP FGC cells; assay: in vitro lysis of human prostate cancer cells, Trypan blue exclusion; assay type: cell-based
# Excerpt: (§2) LNCaP FGC and DU145 human prostate cancer cell lines were purchased from the American Type Culture Collection (ATCC, Rockville Md.), ATCC accession numbers CRL 1740 and HTB-81, respectively. The LNCaP FGC adenocarcinoma cell line was originally obtained from a person. LNCaP FGC cells are sensitive to dihydrotestosterone and to estrogens (A+). The DU145 carcinoma was originally isolated from the brain of a person with metastatic carcinoma of the prostate; this cell line is not sensitive to steroid hormones (A−).
# (§3) Cells were detached from culture flasks, and 1000 cells/well were transferred to 24 well culture plates. The cells were incubated for 24 hours with 10% calf serum. Cells were subsequently incubated without serum for 48 hours. Cells were then incubated for 22 hours with one of the following treatments:
# (§4) Trypan blue exclusion was used to assess viability of the cells after treatment. […] However, treatment with a lytic peptide alone may not be selective in vivo unless specific cell types are separately stimulated, for example by hormones controlling their activity.
# [13] = tested on: DU145 cells; assay: as above; assay type: cell-based; settings: 22 hours; GnRH-hecate 50 μM; free hecate 30 μM; hecate-bLH 90 or 60 μM
# Excerpt: as §2, §3, §4
compound,measurement,setting,value
"15-mer fragment of the bLH subunit: 15-mer fragment of the beta chain of luteinizing hormone, receptor binding site (SEQ. ID NO. 11) (SYAVALSCQCALCRR)",binding to LH receptors on granulosa cells,[1],specifically bound to LH receptors
same,production of steroid hormones,[2],did not initiate the production of steroid hormones
"CC(C)C[C@@H](NC(=O)[C@@H](C)NC(=O)[C@@H](CCCCN)NC(=O)[C@@H](CCCCN)NC(=O)[C@@H](CC(C)C)NC(=O)[C@@H](C)NC(=O)[C@@H](CCCCN)NC(=O)[C@@H](CCCCN)NC(=O)[C@@H](CC(C)C)NC(=O)[C@@H](CCCCN)NC(=O)[C@@H](CCCCN)NC(=O)[C@@H](CC(C)C)NC(=O)[C@@H](C)NC(=O)[C@@H](CCCCN)NC(=O)[C@@H](CCCCN)NC(=O)[C@@H](CC(C)C)NC(=O)[C@@H](C)NC(=O)[C@@H](CCCCN)NC(=O)[C@@H](CC(C)C)NC(=O)[C@@H](C)NC(=O)[C@@H](CC(C)C)NC(=O)[C@@H](C)NC(=O)[C@H](N)Cc1ccccc1)C(=O)O [D-hecate, reference compound] (HELM PEPTIDE1{[dF].[dA].[dL].[dA].[dL].[dK].[dA].[dL].[dK].[dK].[dA].[dL].[dK].[dK].[dL].[dK].[dK].[dA].[dL].[dK].[dK].[dA].[dL]}$$$$V2.0)",pupae completing metamorphosis into adult moths,[3],Six
same,gross lesions in the organs,[4],No gross lesions
D-Lys^6GnRH-hecate: hecate conjugated to the D-Lys^6 of D-Lys^6GnRH,"displacement of radiolabelled monoiodinated-GnRH, as measured by cpm",[5]; rat pituitary membranes,comparable to (and actually slightly greater than) displacement by native mammalian GnRH
D-Lys^6GnRH: GnRH analog with D-Lys at position 6 (SEQ. ID NO. 13),displacement of radiolabelled peptide relative to equimolar native GnRH,[5]; molar basis over a 1000-fold concentration range (n=6),187%±8%
QHWSYGLRPGFALALKALKKALKKLKKALKKAL [GnRH-hecate],pupae completing metamorphosis into adult moths,[3],Eight
same,gross lesions in the organs,[4],"No gross lesions were noted in the organs of any of the four animals, other than the pituitary"
same,C1 and C3 fields of the hippocampus,[6],histological damage to cells
same,pathological changes in other tissues,[6],No pathological changes were noted in any other tissues
same,VP staining in the CNS,[7],not altered
same,hippocampus and other areas of the brain containing high concentrations of GnRH,[8],not discernibly affected
same,effects on peripheral tissues or pituitary weight,[9],No effects were noticed
hecate-bLH: conjugate of hecate and a 15-mer fragment of the beta chain of luteinizing hormone (SEQ. ID NO. 12) (FALALKALKKALKKLKKALKKALSYAVALSCQCALCRR),number of cells killed relative to hecate alone at the same concentrations,"[10]; 10, 5, 1 μM",approximately twice the number of cells as were killed by hecate alone
same,lactic dehydrogenase activity (cell killing),[10]; versus hecate alone,killed a significantly greater number of cells than did hecate alone
same,cell death of small luteal cells versus hecate alone,"[10]; all three doses (10, 5, 1 μM)",significant increases in cell death as compared to treatment with hecate alone
same,levels of lactic dehydrogenase released,[11],significantly higher than the levels of enzyme released following treatment with 1 μM hecate alone
same,number of target cells killed relative to hecate alone,[11],about twice the number of target cells as did hecate alone
same,killing of cells (viability),"[12]; 22 hours, GnRH-hecate 50 μM, hecate-bLH 90 or 60 μM",had little effect
same,sensitivity of cells to conjugate,"[12]; FSH pre-treatment, followed by 90 μM hecate-bLH",more sensitive to the hecate-bLH conjugate than those that were not pre-treated
same,killing of cells (viability),[13],killed almost all DU145 cells
